Where two headings read alike, the source gives them in different places. Values belong to the compound of their own block, whether it stands above or below them.
How the values were obtained:
[1] = Maximum tolerated dose and therapeutic index; conditions: in vivo, read-out: indice thérapeutique
From the text: La présente invention apporte un progrès marqué dans les traitements des atteintes justiciables du bithionol sulfoxyde et des mélanges de ce composé avec d'autres anthelminthiques. Elle permet l'application des composés actifs sous la forme d'un liquide homogène, ne donnant pas lieu à la sédimentation, susceptible par conséquent d'être dosé avec précision et appliqué par des personnes non spécialisées.Un autre avantage considérable de la composition suivant l'invention est la possibilité de l'administration de celle-ci par injection, forme qui était complètement exclue jusqu'à présent. Un autre avantage également très important de la composition selon l'invention est qu'elle permet l'utilisation du bithionol sulfoxyde et des autres anthelminthiques, composant le mélange, à des doses moindres que celles qui étaient jusqu'alors utilisées. Pour n'en donner qu'un exemple pour le bithionol sulfoxyde, cette dose peut passer de 40 mg/kg de poids vif traité à 30 mg/kg pour une même efficacité. Lorsque l'on sait que la dose maximale tolérée est de 150 mg/kg, cela fait passer l'indice thérapeutique de moins de 4 à 5.

[2] = Stability test at different pH and temperatures (assay of both actives); format: physicochemical
From the text: Des échantillons de la composition de l'exemple 9, qui contient 8% de bithionol sulfoxyde et 1,9% de chlorhydrate de levamisole, sont amenés à différents pH et conservés aux différentes températures, comme indiqué au tableau 4 ci-après.
Les pH inférieurs à 7 sont ajustés avec du tampon mandéli- que (1 M), tandis que les phosphates habituels ont servi (0,025 M) à fixer le pH supérieur à 7.
Dans chaque cas, le dosage des deux corps actifs est effectué aux différentes périodes choisies et les teneurs en ces corps sont notées au tableau 4.

[3] = cited from earlier work
[4] = in vivo; cited from earlier work

Structure (SMILES): [O-][S+](c1cc(Cl)cc(Cl)c1O)c1cc(Cl)cc(Cl)c1O [bithionol sulfoxyde, bis(hydroxy-2 dichloro-3,5 phényl) sulfoxyde]
- selectivity ratio ([1]; dose 30 mg/kg (composition selon l'invention)): 5
- selectivity ratio ([1]; dose 40 mg/kg de poids vif (earlier forms)): < 4
- conservation ([2]; pH 2 à 4): tout à fait satisfaisante
- conservation ([2]; pH de 6 à 8): se conserve bien
- insolubilité dans l'eau ([3]; à 25°C): 4 ppm
- dose maximale tolérée [4]: 150 mg/kg

- conservation ([2]; pH 6 à 8): tient mal
Structure (SMILES): c1ccc([C@H]2CN3CCSC3=N2)cc1 [chlorhydrate de L(-) levamisole, tétrahydro-2,3,5,6 phényl-6 imidazo(2,1-b)thiazole]
- solubilité dans l'eau ([3]; water): ~20%

Source: patent EP0209462A1, “Liquid stable anthelmintic and fungicidal composition based on bithionol sulfoxide” (SOCIETE NATIONALE ELF AQUITAINE, priority 1985, dated 1987)
